In test [1] the target is T1, FhCaBP4 (Fasciola hepatica calcium-binding protein 4) (Fasciola hepatica, UniProt I6U578).
T1 construct: full-length (residues 1–191), C-terminal 6×His-tag (LEHHHHHH)
The test can be described thus: microscale thermophoresis (MST), labelled purified protein. For orientation: Microscale thermophoresis detects binding through changes in fluorescence in a small temperature gradient.

Test [2] deals with Fasciola hepatica calcium-binding protein 4 (FhCaBP4), full-length (residues 1–191) (Fasciola hepatica). The experiment in a line: crystal structure; apo form at 1.93 Å, space group P212121, two molecules per asymmetric unit; crystals grown at 20 °C by vapor diffusion with 2 M ammonium sulfate, 0.1 M sodium citrate/citric acid pH 5.5.

Usually Kd stands for the equilibrium constant for the complex coming apart. For the compound `CN(C)CCCN1c2ccccc2Sc2ccc(Cl)cc21` [CPZ], the Kd in test [1] was found to be 289 ± 99.6 µM.

Turning to `CN1CCN(CCCN2c3ccccc3Sc3ccc(C(F)(F)F)cc32)CC1` [TFP], the Kd in test [1] turned out to be 699 ± 341 µM.

On to `NCCCCCCNS(=O)(=O)c1cccc2c(Cl)cccc12` [W7], for which the Kd in test [1] was 471 ± 157 µM.

In general, stoichiometry N refers to the number of molecules, sites or subunits per partner or assembly. In the case of “Fasciola hepatica calcium-binding protein 4 (FhCaBP4), full-length (residues 1–191) (natural protein)”, the stoichiometry N in test [2] turned out to be 2.

The record behind these values is publication PMC12347358, “Structural Insights and Calcium-Switching Mechanism of Fasciola hepatica Calcium-Binding Protein FhCaBP4” (International Journal of Molecular Sciences, 2025).
